Key:
[1] = Stability of MTAs in liquid solvents (degradation rate); type: physicochemical; conditions: 400 mkM in 50% Glycerol
Description: Liquid solvents were also tested for their ability to stabilize representative MTAs SkQ1 and SkQR1. The solvents tested were water solutions of glycerol (10% to 100%), 50% lactulose, and 1,2-propylene glycol (10% to 100%, at 60° C.). Some representative results are shown below (Table 1).

[2] = Storage stability of reduced SkQ1H2 formulations (Example 9); type: physicochemical
Description: The sample also can be stabilized by being dissolved in any deoxygenated anhydrous and aprotic solvents.
The stability of SkQ1H2 in the prepared composition was investigated by storage at 4° C. in darkness (Table 12).
The stability of SkQ1H2 in the prepared composition was investigated by storage at 60° C. in darkness (Table 13).
The yield of SkQ1H2 was 2 g (approx 100% yield) in the form of light powder. The stability results are shown below (Table 14 and Table 15).
The stability of SkQ1H2 in the prepared composition was investigated by storage at 60° C. in darkness (Table 16).
The stability of SkQ1H2 in the compositions prepared by both methods was investigated by storage at 60° C. and 4° C. in darkness (Table 17).
The stability of SkQ1H2 in compositions prepared by Methods 3 and 4 was investigated by storage at 60° C. in darkness (Table 18).
The stability of SkQ1H2 in compositions prepared by both methods was investigated by storage at 60° C. in darkness (Table 18).
The stability of SkQ1H2 in the prepared solution was investigated by storage at RT in darkness (Table 19).
The stability of SkQ1H2 in the prepared solution was investigated by storage at 60° C. in darkness (Table 20).

[3] = SkQ1H2 in 55% EtOH in water, 0 h
[4] = SkQ1H2 in 55% EtOH in water, 0.5 h
[5] = SkQ1H2 in 55% EtOH in water, 1.48 h
[6] = SkQ1H2 in 55% EtOH in water, 2.8 h
[7] = SkQ1H2 in 55% EtOH in water, 3.44 h
[8] = SkQ1H2 in 55% EtOH in water, 4.37 h
[9] = SkQ1H2 in 55% EtOH in water, 23.23 h
[10] = SkQ1H2 in 55% EtOH in water, 143.45 h (~6 days)
[11] = SkQ1H2 in CH2Cl2, 143.45 h (~6 days)
[12] = SkQ1H2 powder, Storage at 60° C., day 0
[13] = SkQ1H2 powder, Storage at 60° C., day 5
[14] = SkQ1H2 powder, Storage at 60° C., day 7
[15] = SkQ1H2 powder, Storage at 60° C., day 11
[16] = SkQ1H2 powder, Storage at 60° C., day 17
[17] = SkQ1H2 powder, Storage at 60° C., day 28
[18] = SkQ1H2 powder, Storage at RT, day 0
[19] = SkQ1H2 powder, Storage at RT, day 3
[20] = SkQ1H2 powder, Storage at RT, day 5
[21] = SkQ1H2 powder, Storage at RT, day 7
[22] = SkQ1H2 powder, Storage at RT, day 11
[23] = SkQ1H2 powder, Storage at RT, day 17
[24] = SkQ1H2 powder, Storage at RT, day 28
[25] = SkQ1H2 with ascorbic acid (5 eq) and sorbite (30 wt parts), solid, time not given
[26] = SkQ1H2 with ascorbic acid (5 eq) and sorbite in 30% 1,2-propylene glycol, 60° C. in darkness, day 0
[27] = SkQ1H2 with ascorbic acid (5 eq) and sorbite in 30% 1,2-propylene glycol, 60° C. in darkness, day 3
[28] = SkQ1H2 with ascorbic acid (5 eq) and sorbite in 30% 1,2-propylene glycol, 60° C. in darkness, day 14
[29] = SkQ1H2 with ascorbic acid (5 eq) and sorbite in 30% 1,2-propylene glycol, 60° C. in darkness, day 27
[30] = SkQ1H2 with ascorbic acid (10 eq) in 55% EtOH, RT in darkness, 0 h
[31] = SkQ1H2 with ascorbic acid (10 eq) in 55% EtOH, RT in darkness, 1.5 h
[32] = SkQ1H2 with ascorbic acid (10 eq) in 55% EtOH, RT in darkness, 68 h (~3 days)
[33] = SkQ1H2 with ascorbic acid (10 eq) in 55% EtOH, RT in darkness, 118 h (~5 days)
[34] = SkQ1H2 with ascorbic acid (10 eq) in 55% EtOH, RT in darkness, 165 h (~7 days)
[35] = SkQ1H2 with sorbite (30 wt parts), solid, 60° C. in darkness, day 0
[36] = SkQ1H2 with sorbite (30 wt parts), solid, 60° C. in darkness, day 4
[37] = SkQ1H2 with sorbite (30 wt parts), solid, 60° C. in darkness, day 7
[38] = SkQ1H2 with sorbite (30 wt parts), solid, 60° C. in darkness, day 11
[39] = SkQ1H2 with sorbite (30 wt parts), solid, 60° C. in darkness, day 15
[40] = SkQ1H2 with sorbite (30 wt parts), solid, 60° C. in darkness, day 28

SMILES: COc1cc2c(cc1OC)-c1c(CC(=O)OCCCCCCCC3=CC(=O)C(C)=C(C)C3=O)c3ccc(OC)c(OC)c3c[n+]1CC2 [SkQBP1]
- Degradation rate, percent per day [1]: 0.08 percent per day

SMILES: Cc1c(O)cc(CCCCCCCCCC[P+](c2ccccc2)(c2ccccc2)c2ccccc2)c(O)c1C [SkQ1H2]
- stability of isolated SkQ1H2 light powder ([2]; 1 month at RT or several months at 4° C. in darkness under inert atmosphere without humidity access): excellent stability
- SkQ1, % [2, 3]: 2.21%
- SkQ1H2, % [2, 3]: 97.79%
- SkQ1, % [2, 4]: 9.21%
- SkQ1H2, % [2, 4]: 90.79%
- SkQ1, % [2, 5]: 14.76%
- SkQ1H2, % [2, 5]: 85.24%
- SkQ1, % [2, 6]: 32.57%
- SkQ1H2, % [2, 6]: 67.43%
- SkQ1, % [2, 7]: 47.83%
- SkQ1H2, % [2, 7]: 52.17%
- SkQ1, % [2, 8]: 56.57%
- SkQ1H2, % [2, 8]: 43.43%
- SkQ1, % [2, 9]: 82.39%
- SkQ1H2, % [2, 9]: 16.55%
- SkQ1, % [2, 10]: 77.23%
- SkQ1H2, % [2, 10]: 9.63%
- SkQ1, % ([2]; SkQ1H2 in CH2Cl2, 0 h): 2.21%
- SkQ1H2, % ([2]; SkQ1H2 in CH2Cl2, 0 h): 97.79%
- SkQ1, % ([2]; SkQ1H2 in CH2Cl2, 0.5 h): 4.01%
- SkQ1H2, % ([2]; SkQ1H2 in CH2Cl2, 0.5 h): 95.99%
- SkQ1, % ([2]; SkQ1H2 in CH2Cl2, 1.48 h): 5.68%
- SkQ1H2, % ([2]; SkQ1H2 in CH2Cl2, 1.48 h): 94.32%
- SkQ1, % ([2]; SkQ1H2 in CH2Cl2, 2.8 h): 6.42%
- SkQ1H2, % ([2]; SkQ1H2 in CH2Cl2, 2.8 h): 93.58%
- SkQ1, % ([2]; SkQ1H2 in CH2Cl2, 3.44 h): 5.57%
- SkQ1H2, % ([2]; SkQ1H2 in CH2Cl2, 3.44 h): 94.43%
- SkQ1, % ([2]; SkQ1H2 in CH2Cl2, 4.37 h): 7.18%
- SkQ1H2, % ([2]; SkQ1H2 in CH2Cl2, 4.37 h): 92.82%
- SkQ1, % ([2]; SkQ1H2 in CH2Cl2, 23.23 h): 9.30%
- SkQ1H2, % ([2]; SkQ1H2 in CH2Cl2, 23.23 h): 89.61%
- SkQ1, % [2, 11]: 16.53%
- SkQ1H2, % [2, 11]: 82.11%
- SkQ1, % [2, 12]: 0.75%
- SkQ1H2, % [2, 12]: 99.2%
- SkQ1, % [2, 13]: 0.55%
- SkQ1H2, % [2, 13]: 99.45%
- SkQ1, % [2, 14]: 0%
- SkQ1H2, % [2, 14]: 100%
- SkQ1, % [2, 15]: 0.19%
- SkQ1H2, % [2, 15]: 99.76%
- SkQ1, % [2, 16]: 1.24%
- SkQ1H2, % [2, 16]: 98.61%
- SkQ1, % [2, 17]: 11.04%
- SkQ1H2, % [2, 17]: 88.7%
- SkQ1, % [2, 18]: 1.01%
- SkQ1H2, % [2, 18]: 98.99%
- SkQ1, % [2, 19]: 0.66%
- SkQ1H2, % [2, 19]: 99.34%
- SkQ1, % [2, 20]: 0.63%
- SkQ1H2, % [2, 20]: 99.37%
- SkQ1, % [2, 21]: 0.71%
- SkQ1H2, % [2, 21]: 99.14%
- SkQ1, % [2, 22]: 0.83%
- SkQ1H2, % [2, 22]: 99.12%
- SkQ1, % [2, 23]: 0.28%
- SkQ1H2, % [2, 23]: 99.49%
- SkQ1, % [2, 24]: 0.50%
- SkQ1H2, % [2, 24]: 99.45%
- number of impurities with content >0.5% ([2]; SkQ1H2 with ascorbic acid (5 eq) and sorbite (30 wt parts), solid, 1 year at 4° C. in darkness): 0
- number of impurities with content >0.5% ([2]; SkQ1H2 with ascorbic acid (5 eq) and sorbite (30 wt parts), solid, 20 days at 60° C. in darkness): 0
- SkQ1, % [2, 25]: 1.209%
- SkQH2, % [2, 25]: 97.753%
- SkQ1, % [2, 26]: 0.18%
- SkQH2, % [2, 26]: 99.82%
- SkQ1, % [2, 27]: 1.03%
- SkQH2, % [2, 27]: 98.67%
- SkQ1, % [2, 28]: 28.34%
- SkQH2, % [2, 28]: 69.51%
- SkQ1, % [2, 29]: 51.9%
- SkQH2, % [2, 29]: 3.2%
- SkQ1, % [2, 30]: 0.27%
- SkQ1H2, % [2, 30]: 99.73%
- SkQ1, % [2, 31]: 0.93%
- SkQ1H2, % [2, 31]: 99.07%
- SkQ1, % [2, 32]: 0.59%
- SkQ1H2, % [2, 32]: 99.05%
- SkQ1, % [2, 33]: 0.31%
- SkQ1H2, % [2, 33]: 99.69%
- SkQ1, % [2, 34]: 0.26%
- SkQ1H2, % [2, 34]: 99.74%
- SkQ1, % [2, 35]: 0.61%
- SkQ1H2, % [2, 35]: 99.01%
- SkQ1, % [2, 36]: 8.7%
- SkQ1H2, % [2, 36]: 90.8%
- SkQ1, % [2, 37]: 9.4%
- SkQ1H2, % [2, 37]: 90.2%
- SkQ1, % [2, 38]: 10.7%
- SkQ1H2, % [2, 38]: 88.8%
- SkQ1, % [2, 39]: 10.4%
- SkQ1H2, % [2, 39]: 89.1%
- SkQ1, % [2, 40]: 5.3%
- SkQ1H2, % [2, 40]: 42.9%
- oxidation to SkQ1 ([2]; exposed to air or wet atmosphere or dissolved in water or any protonic solvent): quickly oxides

Source: US9572890B2, “Oral formulations of mitochondrially-targeted antioxidants and their preparation and use” (MITOTECH SA, priority 2011, dated 2017)
